Where a name gives a salt, the structure may show the parent alone.
Target: T1, histamine 3 receptor (H3R) (Homo sapiens, UniProt Q9Y5N1)
T1 construct: expressed in transfected cells; host or cells: CHO cells (HR3-CHO cell line), membranes
Test: Binding assay with 3H-(R)α-methylhistamine (competition binding, membranes of the human HR3-CHO cell line)
Settings: competition against 3H(R)α-methylhistamine (1 nM), Ki calculated from IC50 by the Cheng-Prusoff equation
Method: Binding assay with ^3H-(R)α-methylhistamine
Saturation binding experiments were performed using HR3-CHO membranes prepared as described in Takahashi, K, Tokita, S., Kotani, H. (2003) J. Pharmacol. Exp. Therapeutics 307, 213-218.
An appropriate amount of membrane (60 to 80 μg protein/well) was incubated with increasing concentrations of ^3H(R)α-Methylhistamine di-hydrochloride (0.10 to 10 nM). Non specific binding was determined using a 200 fold excess of cold (R)α-Methylhistamine dihydrobromide (500 nM final concentration). The incubation was carried out at room temperature (in deep-well plates shaking for three hours). The final volume in each well was 250 μl. The incubation was followed by rapid filtration on GF/B filters (pre-soaked with 100 μl of 0.5% PEI in Tris 50 mM shaking at 200 rpm for two hours). The filtration was made using a cell-harvester and the filter plates were then washed five times with ice cold washing buffer containing 0.5 M NaCl. After harvesting, the plates were dried at 55° C. for 60 min, then we added scintillation fluid (Microscint 40, 40 microl in each well) and the amount of radioactivity on the filter was determined in Packard top-counter after shaking the plates for two hours at 200 rpm at room temperature.
Binding Buffer: 50 mM Tris-HCl pH 7.4 and 5 mM MgCl2×6H2O pH 7.4.
Washing Buffer: 50 mM Tris-HCl pH 7.4 and 5 mM MgCl2×6H2O and 0.5 M NaCl pH 7.4.
Indirect measurement of affinity of H3R inverse agonists: twelve increasing concentrations (ranging from 10 μM to 0.3 nM) of the selected compounds were always tested in competition binding experiments using membrane of the human HR3-CHO cell line. […]
All compounds were tested at a single concentration in duplicate. […] Ki's were calculated from IC50 based on Cheng-Prusoff equation (Cheng, Y, Prusoff, W H (1973) Biochem Pharmacol 22, 3099-3108): Ki=IC50/[1+D/Kd] wherein D is the concentration of the radioligand and Kd is the binding constant for the radioligand binding to the receptor under the conditions used in the competition experiment.

T1 sequence (Q9Y5N1 whole entry): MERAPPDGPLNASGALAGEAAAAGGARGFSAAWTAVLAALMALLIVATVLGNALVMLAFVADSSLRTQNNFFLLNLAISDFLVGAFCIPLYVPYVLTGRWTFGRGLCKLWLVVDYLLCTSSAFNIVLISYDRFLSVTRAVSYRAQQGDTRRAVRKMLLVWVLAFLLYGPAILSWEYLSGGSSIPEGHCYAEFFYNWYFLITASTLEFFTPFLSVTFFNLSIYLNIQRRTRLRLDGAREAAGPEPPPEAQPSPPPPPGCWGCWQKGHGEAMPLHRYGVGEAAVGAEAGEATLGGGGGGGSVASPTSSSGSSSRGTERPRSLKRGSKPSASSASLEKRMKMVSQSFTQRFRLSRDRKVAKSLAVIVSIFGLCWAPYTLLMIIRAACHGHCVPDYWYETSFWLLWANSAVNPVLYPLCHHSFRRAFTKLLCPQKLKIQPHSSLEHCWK

Structure (SMILES)	Ki [nM]
CN1CCCC1c1c[nH]c2cc(C(=O)N3CCN(C4CCCC4)CC3)ccc12 (stereo not drawn) [Example 35, (4-Cyclopentyl-piperazin-1-yl)-[3-(1-methyl-pyrrolidin-2-yl)-1H-indol-6-yl]-methanone]	33.1
CC(C)CN1CCC(c2c[nH]c3cc(C(=O)N4CCN(C(C)C)CC4)ccc23)CC1 [Example 2, [3-(1-Isobutyl-piperidin-4-yl)-1H-indol-6-yl]-(4-isopropyl-piperazin-1-yl)-methanone; hydrochloride]	24.3
CC(C)CN1CC=C(c2cn(-c3ccc(F)cc3F)c3cc(C(=O)N4CCN(C(C)C)CC4)ccc23)CC1 [Example 54, [1-(2,4-Difluoro-phenyl)-3-(1-isobutyl-1,2,3,6-tetrahydro-pyridin-4-yl)-1H-indol-6-yl]-(4-isopropyl-piperazin-1-yl)-methanone]	17.6

From US7514433B2, “1H-indole-6-yl-piperazin-1-yl-methanone derivatives” (Hoffmann-La Roche Inc., priority 2006, dated 2009)
